Source: ChEMBL document CHEMBL4130359, “Indazole-based ligands for estrogen-related receptor α as potential anti-diabetic agents” (Eur J Med Chem, 2017)
Activity calls are given as the source filed them. No cut-off for these calls is given here.

Columns and labels:
[1] = system: Rattus norvegicus; test: Effect on EIF2B3 gene expression in epididymal white adipose tissue of Zucker rat sub-chronic fa/fa prediabetic model at 10 mg/kg, po qd for 15 days by microarray analysis relative to control; type: functional
[2] = system: Rattus norvegicus; test: Effect on UCP3 gene expression in epididymal white adipose tissue of Zucker rat sub-chronic fa/fa prediabetic model at 10 mg/kg, po qd for 15 days by microarray analysis relative to control; type: functional
[3] = system: Rattus norvegicus; test: Toxicity in Zucker rat sub-chronic fa/fa prediabetic model assessed as serum BUN level at 3 mg/kg, po qd for 31 days measured on day 32 (reference value: 28.3 +/- […]); type: organism-based; conditions: in vivo, 744 h
[4] = biological target: Retinoic acid receptor beta (Homo sapiens, UniProt P10826); test: Agonist activity at recombinant GST-tagged human RARbeta LBD assessed as fluorescein-labeled coactivator peptide recruitment preincubated with enzyme followed by coactivator addition by LanthaScreen TR-FRET assay
Sequence of Retinoic acid receptor beta (P10826 whole entry, the tested form may be a part): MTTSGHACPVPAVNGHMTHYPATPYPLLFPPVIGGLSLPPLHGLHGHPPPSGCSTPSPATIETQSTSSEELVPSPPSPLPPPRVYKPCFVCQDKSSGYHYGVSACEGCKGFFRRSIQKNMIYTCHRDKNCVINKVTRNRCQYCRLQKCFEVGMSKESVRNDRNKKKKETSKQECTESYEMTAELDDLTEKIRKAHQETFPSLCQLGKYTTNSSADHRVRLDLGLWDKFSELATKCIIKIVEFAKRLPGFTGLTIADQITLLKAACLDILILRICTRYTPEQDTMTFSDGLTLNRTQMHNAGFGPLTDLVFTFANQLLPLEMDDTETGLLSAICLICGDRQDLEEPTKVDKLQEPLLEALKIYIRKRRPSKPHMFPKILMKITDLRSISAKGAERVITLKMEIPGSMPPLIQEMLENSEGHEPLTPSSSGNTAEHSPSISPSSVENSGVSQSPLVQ

[5] = system: Rattus norvegicus; test: Effect on CPT1A gene expression in epididymal white adipose tissue of Zucker rat sub-chronic fa/fa prediabetic model at 10 mg/kg, po qd for 15 days by microarray analysis relative to control; type: functional
[6] = biological target: Estrogen-related receptor gamma (Homo sapiens, UniProt P62508); test: Antagonist activity at ERRgamma (unknown origin) assessed as inhibition of co-activator peptide recruitment by TR-FRET assay
Sequence of Estrogen-related receptor gamma (P62508 whole entry): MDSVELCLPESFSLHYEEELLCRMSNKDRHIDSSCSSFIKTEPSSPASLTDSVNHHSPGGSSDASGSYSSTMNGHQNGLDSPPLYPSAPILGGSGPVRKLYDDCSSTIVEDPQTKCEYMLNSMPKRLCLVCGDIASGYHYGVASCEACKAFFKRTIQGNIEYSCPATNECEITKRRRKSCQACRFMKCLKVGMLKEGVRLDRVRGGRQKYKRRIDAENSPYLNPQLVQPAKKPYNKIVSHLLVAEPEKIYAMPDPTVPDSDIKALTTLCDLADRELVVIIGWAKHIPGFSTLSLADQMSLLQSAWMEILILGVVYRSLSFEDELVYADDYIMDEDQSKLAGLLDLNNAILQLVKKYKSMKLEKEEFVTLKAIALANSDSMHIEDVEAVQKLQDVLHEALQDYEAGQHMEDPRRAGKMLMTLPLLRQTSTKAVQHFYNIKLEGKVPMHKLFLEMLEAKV

[7] = system: Rattus norvegicus; test: Antidiabetic activity in Zucker rat sub-chronic fa/fa prediabetic model assessed as blood glucose AUC (0 to 120 min) at 50 mg/kg, po qd for 31 days measured on day 29 post dose by OGTT (reference value: 41471 +/- 2451 mg.min/dL); type: functional
[8] = system: Rattus norvegicus; test: Decrease in fed plasma insulin level in Zucker rat sub-chronic fa/fa prediabetic model assessed as change in plasma insulin level at 10 mg/kg, po qd for 4 days measured on day 5 relative to control; type: functional; design: scale not given: the % may be the effect or the level left
[9] = system: Rattus norvegicus; test: Antidiabetic activity in po dosed Zucker rat chronic ob/ob model assessed as reduction in blood glucose AUC (0 to 120 min) administered once daily for 31 days measured on day 28 post dose by OGTT; type: functional, organism-based
[10] = system: Rattus norvegicus; test: Antidiabetic activity in Zucker rat sub-chronic fa/fa prediabetic model assessed as blood insulin AUC (0 to 120 min) at 3 mg/kg, po qd for 31 days measured on day 29 post dose (reference value: 1503 +/- 160 ug.min/L); type: functional, organism-based; design: dose 3 mg/kg, time < 2 hr
[11] = AUC (0 to 24 hrs) in Zucker rat sub-chronic fa/fa prediabetic model at 3 mg/kg, po qd measured on day 1 post dose; type: ADME, organism-based; design: time < 24 hr, dose 3 mg/kg, route oral; conditions: in vivo
[12] = biological target: Sodium channel protein type 2 subunit alpha (Homo sapiens) (UniProt Q99250); test: Activity at human Nav1.2 expressed in CHOK1 cells assessed as effect on channel current up to 10 uM by patch clamp method; type: cell-based
Sequence of Sodium channel protein type 2 subunit alpha (Homo sapiens) (Q99250 whole entry, looked up): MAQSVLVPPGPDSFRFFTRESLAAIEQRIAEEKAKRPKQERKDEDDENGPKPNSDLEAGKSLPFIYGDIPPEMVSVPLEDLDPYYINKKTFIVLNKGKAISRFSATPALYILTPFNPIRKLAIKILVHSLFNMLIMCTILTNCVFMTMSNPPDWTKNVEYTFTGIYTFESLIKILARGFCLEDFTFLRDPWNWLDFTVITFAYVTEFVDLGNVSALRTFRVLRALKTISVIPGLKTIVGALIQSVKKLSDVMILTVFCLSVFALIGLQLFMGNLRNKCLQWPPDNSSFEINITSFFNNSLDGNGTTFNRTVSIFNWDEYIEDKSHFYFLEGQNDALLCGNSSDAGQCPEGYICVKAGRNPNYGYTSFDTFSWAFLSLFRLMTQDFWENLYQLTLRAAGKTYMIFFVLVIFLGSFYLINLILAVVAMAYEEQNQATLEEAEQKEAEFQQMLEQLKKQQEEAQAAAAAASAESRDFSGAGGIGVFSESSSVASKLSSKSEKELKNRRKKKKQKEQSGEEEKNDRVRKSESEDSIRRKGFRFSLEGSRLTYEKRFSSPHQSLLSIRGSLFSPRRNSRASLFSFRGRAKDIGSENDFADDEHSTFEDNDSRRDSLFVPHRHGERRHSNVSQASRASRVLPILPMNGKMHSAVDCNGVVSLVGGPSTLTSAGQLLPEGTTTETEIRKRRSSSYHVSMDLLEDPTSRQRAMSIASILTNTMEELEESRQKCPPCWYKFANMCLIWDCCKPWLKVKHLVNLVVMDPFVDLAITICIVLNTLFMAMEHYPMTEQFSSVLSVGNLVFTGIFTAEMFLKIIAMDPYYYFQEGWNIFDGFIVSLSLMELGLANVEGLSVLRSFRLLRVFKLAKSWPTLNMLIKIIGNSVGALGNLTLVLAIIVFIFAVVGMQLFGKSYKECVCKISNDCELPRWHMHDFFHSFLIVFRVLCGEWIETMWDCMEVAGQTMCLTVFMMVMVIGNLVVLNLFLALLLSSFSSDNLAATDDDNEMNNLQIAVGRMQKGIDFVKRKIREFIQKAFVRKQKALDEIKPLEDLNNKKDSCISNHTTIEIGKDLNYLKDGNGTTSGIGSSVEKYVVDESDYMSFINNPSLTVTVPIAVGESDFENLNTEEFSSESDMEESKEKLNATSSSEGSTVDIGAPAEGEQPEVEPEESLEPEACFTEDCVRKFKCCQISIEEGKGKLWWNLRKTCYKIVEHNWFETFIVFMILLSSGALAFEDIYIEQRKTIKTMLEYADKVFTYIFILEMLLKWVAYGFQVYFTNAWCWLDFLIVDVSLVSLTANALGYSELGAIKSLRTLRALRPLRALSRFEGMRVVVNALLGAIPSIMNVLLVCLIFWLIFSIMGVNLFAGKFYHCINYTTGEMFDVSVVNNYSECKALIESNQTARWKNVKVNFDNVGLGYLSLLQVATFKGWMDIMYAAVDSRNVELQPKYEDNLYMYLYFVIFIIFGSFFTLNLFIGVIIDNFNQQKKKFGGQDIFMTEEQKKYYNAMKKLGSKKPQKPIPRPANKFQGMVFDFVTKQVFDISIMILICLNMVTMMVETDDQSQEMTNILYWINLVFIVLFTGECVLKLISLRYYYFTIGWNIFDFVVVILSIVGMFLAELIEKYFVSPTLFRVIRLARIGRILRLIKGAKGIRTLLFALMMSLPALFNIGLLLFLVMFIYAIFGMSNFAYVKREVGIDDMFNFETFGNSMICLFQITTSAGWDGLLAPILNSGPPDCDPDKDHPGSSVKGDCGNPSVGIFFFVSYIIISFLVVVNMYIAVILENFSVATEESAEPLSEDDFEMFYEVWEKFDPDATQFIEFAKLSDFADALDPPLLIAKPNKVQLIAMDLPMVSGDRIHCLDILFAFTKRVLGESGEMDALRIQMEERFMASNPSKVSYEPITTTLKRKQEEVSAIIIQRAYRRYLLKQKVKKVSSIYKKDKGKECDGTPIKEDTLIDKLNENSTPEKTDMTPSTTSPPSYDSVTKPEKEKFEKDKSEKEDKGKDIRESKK

[13] = system: Rattus norvegicus; test: Antidiabetic activity in Zucker rat sub-chronic fa/fa prediabetic model assessed as fasting blood insulin level at 3 mg/kg, po qd for 31 days measured on day 29 post dose (reference value: 8.5 +/- 1.4 ug/L); type: functional
[14] = Cmax in Zucker rat sub-chronic fa/fa prediabetic model at 3 mg/kg, po qd measured on day 1 post dose; type: ADME, organism-based; design: dose 3 mg/kg, route oral; conditions: in vivo
[15] = system: Rattus norvegicus; test: Effect on ACSS1 gene expression in epididymal white adipose tissue of Zucker rat sub-chronic fa/fa prediabetic model at 10 mg/kg, po qd for 15 days by microarray analysis relative to control; type: functional
[16] = system: Rattus norvegicus; test: Effect on NDUFS4 gene expression in epididymal white adipose tissue of Zucker rat sub-chronic fa/fa prediabetic model at 10 mg/kg, po qd for 15 days by microarray analysis relative to control; type: functional
[17] = system: Rattus norvegicus; test: Antidiabetic activity in Zucker rat sub-chronic fa/fa prediabetic model assessed as fasting blood glucose level at 1 mg/kg, po qd for 31 days measured on day 29 post dose (reference value: 163 +/- 9.2 mg/dl); type: functional
[18] = biological target: Steroid hormone receptor ERR2 (Homo sapiens, UniProt O95718); test: Antagonist activity at recombinant GST-tagged human ERRbeta LBD assessed as inhibition of fluorescein-labeled coactivator peptide recruitment preincubated with enzyme followed by coactivator addition by LanthaScreen TR-FRET assay
Sequence of Steroid hormone receptor ERR2 (O95718 whole entry, the tested form may be a part): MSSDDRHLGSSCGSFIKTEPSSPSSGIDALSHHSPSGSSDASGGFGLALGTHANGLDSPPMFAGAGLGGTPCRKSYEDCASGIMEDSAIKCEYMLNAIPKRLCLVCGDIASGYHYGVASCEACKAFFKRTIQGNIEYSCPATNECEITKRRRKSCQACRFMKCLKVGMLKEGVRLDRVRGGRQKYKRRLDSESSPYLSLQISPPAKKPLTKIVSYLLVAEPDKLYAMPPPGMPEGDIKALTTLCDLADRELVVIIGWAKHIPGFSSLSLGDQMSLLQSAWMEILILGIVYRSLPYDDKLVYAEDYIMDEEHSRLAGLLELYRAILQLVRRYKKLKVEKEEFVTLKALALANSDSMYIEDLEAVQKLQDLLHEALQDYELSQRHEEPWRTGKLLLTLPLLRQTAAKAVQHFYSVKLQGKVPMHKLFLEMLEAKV

[19] = system: Rattus norvegicus; test: Effect on TNFRSF1B gene expression in epididymal white adipose tissue of Zucker rat sub-chronic fa/fa prediabetic model at 10 mg/kg, po qd for 15 days by microarray analysis relative to control; type: functional
[20] = system: Rattus norvegicus; test: Toxicity in Zucker rat sub-chronic fa/fa prediabetic model assessed as brown adipose tissue weight at 1 mg/kg, po qd for 31 days measured on day 32 (reference value: 2.1 +/- 0.3 g); type: organism-based; conditions: in vivo, 744 h
[21] = system: Rattus norvegicus; test: Toxicity in Zucker rat sub-chronic fa/fa prediabetic model assessed as body weight at 1 mg/kg, po qd for 29 days measured on day 29 post last dose (reference value: 533 +/- 10 g); type: organism-based; conditions: in vivo, 696 h
[22] = system: Rattus norvegicus; test: Toxicity in […] chronic ob/ob model assessed as serum triglyceride level at 10 mg/kg, po qd for 31 days measured on day 32 (reference value: 329 +/- 36 mg/dl); type: organism-based; conditions: in vivo, 744 h
[23] = Drug uptake in muscle of Zucker rat sub-chronic fa/fa prediabetic model at 12.5 mg/kg, po qd for 11 days; type: ADME, organism-based, Muscle tissue; conditions: read-out: Drug uptake
[24] = system: Rattus norvegicus; test: Effect on COX4I1 gene expression in epididymal white adipose tissue of Zucker rat sub-chronic fa/fa prediabetic model at 10 mg/kg, po qd for 15 days by microarray analysis relative to control; type: functional
[25] = system: Rattus norvegicus; test: Effect on CD3D gene expression in epididymal white adipose tissue of Zucker rat sub-chronic fa/fa prediabetic model at 10 mg/kg, po qd for 15 days by microarray analysis relative to control; type: functional
[26] = system: Rattus norvegicus; test: Toxicity in […] model assessed as liver weight at 3 mg/kg, po qd for 31 days measured on day 32 (reference value: 2.77 +/- 0.16 g); type: organism-based; conditions: in vivo, 744 h
[27] = Tmax in […] at 15 mg/kg administered via oral gavage by LC-MS analysis; type: ADME, organism-based; conditions: in vivo
[28] = system: Rattus norvegicus; test: Antidiabetic activity in Zucker rat sub-chronic fa/fa prediabetic model assessed as fasting blood glucose level at 3 mg/kg, po qd for 31 days measured on day 29 post dose (reference value: 163 +/- 9.2 mg/dl); type: functional
[29] = system: Rattus norvegicus; test: Effect on DLST gene expression in epididymal white adipose tissue of Zucker rat sub-chronic fa/fa prediabetic model at 10 mg/kg, po qd for 15 days by microarray analysis relative to control; type: functional
[30] = system: Rattus norvegicus; test: Effect on RRAS2 gene expression in epididymal white adipose tissue of Zucker rat sub-chronic fa/fa prediabetic model at 10 mg/kg, po qd for 15 days by microarray analysis relative to control; type: functional
[31] = system: Rattus norvegicus; test: Antidiabetic activity in […] chronic ob/ob model assessed as increase in plasma adiponectin level at 3 mg/kg, po qd for 31 days measured on day 32 by ELISA relative to control; type: functional
[32] = Clearance in CD-1 mouse at 5 mg/kg, iv by LC-MS analysis; type: ADME, organism-based; conditions: in vivo

In the case of `CN1CC[C@@H](N2C(=O)S/C(=C\c3ccc4c(cnn4Cc4ccc(Cl)cc4C(F)(F)F)c3)C2=O)[C@H](F)C1`, the “fold change (FC)” value [1] is reported as 1.203, the “fold change (FC)” value [2] is reported as 2.305 and the Activity [3] is reported as 26.3 mg/dL. The EC50 [4] was greater than 10 µM, the “fold change (FC)” value [5] was -1.277 and the IC50 [6] was greater than 10 µM. For the same compound, the Activity [7] was 16701 mg·min/dL, the Activity [8] was -67% and the Activity [9] was “Dose-dependent effect”. The AUC [10] was 16.7 ng·h/mL, the AUC(0-t) at 24 h [11] was 5980 ng·h/mL and the Activity [12] was “inactive”. The Activity [13] was 4.8 µg/L, the Cmax [14] was 725 ng/mL and the “fold change (FC)” value [15] was -1.893. The “fold change (FC)” value [16] was 1.239, the Activity [17] was 123 mg/dL and the IC50 [18] was greater than 10 µM. For the same compound, the “fold change (FC)” value [19] was -1.505, the Activity [20] was 3.7 g and the Activity [21] was 525 g. The Activity [22] was 138 mg/dL, the concentration at 264 h [23] was 2820 ng/g and the “fold change (FC)” value [24] was 1.323. The “fold change (FC)” value [25] was -1.256, the Activity [26] was 2.65 g and the Tmax [27] was 2.5 h. For the same compound, the Activity [28] was 118 mg/dL, the “fold change (FC)” value [29] was 1.352 and the “fold change (FC)” value [30] was 1.235. The “fold change (FC)” value [31] was 1.4 and the clearance [32] was 10 mL/min/kg.
